Paper PMC10779222, “Copper(II) Complexes with 1-(Isoquinolin-3-yl)heteroalkyl-2-ones: Synthesis, Structure and Evaluation of Anticancer, Antimicrobial and Antioxidant Potential” (International Journal of Molecular Sciences, 2023)
Converted amounts (≈) assume the structure as drawn. “And” between values parts separate entries of the source, which are not always exact repeats. Identical values can stand only once.

Assays:
HepG2 (hepatoma) = experiment: MTT cytotoxicity assay on HepG2 cells; type: cell-based, human; details: Homo sapiens, HepG2; MTT, 24 h incubation; read-out: IC50 ± SD, HepG2
Experimental: (§1) Cytotoxic activity of the investigated compounds was evaluated against T98G (glioblastoma), HepG2 (hepatoma), LS-180 (colon cancer) and A375 (melanoma) cell lines. Human normal skin fibroblasts, CCD-1059Sk (CRL-2072), were used as reference (non-cancerous) cells. All of the cell lines were obtained from American Type Culture Collection (ATCC; Manassas, VA, USA). A375, T98G and CCD-1059Sk cells were cultured in Dulbecco’s Modified Eagle’s Medium (DMEM) (Sigma Aldrich, St. Louis, MO, USA) supplemented with 10% FBS, penicillin (100 U/mL) and streptomycin (100 μg/mL). LS-180 and HepG2 cells were cultured in Eagle’s Minimum Essential Medium supplemented with 10% FBS, penicillin (100 U/mL) and streptomycin (100 μg/mL). All of the cells were maintained at 37 °C in a humidified atmosphere of 5% CO2. The compounds were dissolved in DMSO in order to obtain stock solutions. At the day of the experiment, the suspension of cells (1 × 10^5 cells/mL) was distributed onto 96-well plates at a volume of 100 μL/well. After attachment, the cells were treated with the increased concentrations of the tested compounds in medium containing 2% FBS and incubated for 24 h. Then, the medium was removed from wells, and cells were rinsed with PBS. Afterwards, 15 μL of MTT working solution (5 mg/mL in PBS) was added to each well, and the plates were incubated for 3 h. Subsequently, 100 μL of 10% SDS solution was added to each well in order to dissolve the precipitated formazan crystals. After overnight incubation at 37 °C, the absorbance of the obtained solution was measured at λ = 570 nm using a microplate reader (Epoch, BioTek Instruments, Inc., Winooski, VT, USA). At least two independent experiments were performed in triplicate. […] IC50 values of the investigated derivatives and positive control (etoposide) were calculated using the IC50 online calculator [101].

T98G (glioblastoma) = experiment: MTT cytotoxicity assay on T98G cells; type: cell-based; details: Homo sapiens, T98G; MTT, 24 h incubation; read-out: IC50 ± SD, T98G
Experimental: as §1

LS-180 (colon cancer) = experiment: MTT cytotoxicity assay on LS-180 cells; type: cell-based, human; details: Homo sapiens, LS180, 24 h incubation, read-out: IC50 ± SD, LS180
Experimental: as §1

[1] = test system: CCD-1059Sk (human normal skin fibroblasts); experiment: MTT cytotoxicity assay on non-cancerous fibroblasts; type: cell-based; details: Homo sapiens, CCD-1059Sk, 24 h incubation, non-cancerous cells, read-out: IC50 ± SD, CCD-1059-Sk
Experimental: as §1

A375 (melanoma) = experiment: MTT cytotoxicity assay on A375 cells; type: cell-based, human; details: Homo sapiens, A-375, 24 h incubation, read-out: IC50 ± SD, A375
Experimental: as §1

[2] = test system: A375, HepG2, LS-180, T98G and CCD-1059Sk cell lines; experiment: MTT cytotoxicity assay, summary statements over several cell lines; type: cell-based; details: Homo sapiens; all cell lines (A375, HepG2, LS-180, T98G, CCD-1059-Sk)
Experimental: as §1

[3] = ABTS radical scavenging assay; details: ±SD; 10 min, 30 °C
Experimental: The ABTS radical scavenging assay of samples (ligands or complexes) was performed with ascorbic acid as a positive control. Briefly, 30 μL of different concentrations of the samples, dissolved in DMSO, was mixed with 170 μL of ABTS solution (2 mM ABTS diammonium salt, 3.5 mM potassium persulfate) and completed with water to a final volume of 300 μL. ABTS solution with DMSO was used as a control. […] ABTS inhibition was calculated according to the following equation:ABTS Inhibition (%) = [(Acontrol − Asample)/Acontrol] × 100% The radical scavenging activity of the samples was shown as the IC50 value (the concentration of the analyzed samples that caused a decrease in the non-reduced form of the ABTS radical by 50%).

[4] = test system: Candida albicans ATCC 102231; experiment: Two-fold microdilution broth method, MIC; type: cell-based; details: Candida albicans, ATCC102231; 35 °C, 24 h
Description: (§2) Antibacterial and antifungal activities of the free ligands L2, L3 and L4 and the corresponding copper(II) complexes C2, C3 and C4 were screened using the two-fold microdilution broth method. Minimal inhibitory concentrations (MICs) of tested compounds for the panel of reference Gram-positive bacteria, including Staphylococcus aureus ATCC 25923, Staphylococcus aureus ATCC BAA-1707, Staphylococcus epidermidis ATCC 12228, Micrococcus luteus ATCC 10240 and Bacillus cereus ATCC 10876; Gram-negative bacteria, including Salmonella Typhimurium ATCC 14028, Escherichia coli ATCC 25922, Proteus mirabilis ATCC 12453, Klebsiella pneumoniae ATCC 13883 and Pseudomonas aeruginosa ATCC 9027; and yeasts, including Candida albicans ATCC 102231, Candida parapsilosis ATCC 22019 and Candida glabrata ATCC 90030 were determined. The procedure has been described in detail before. Briefly, the solutions of tested compounds dissolved in dimethylosulfoxide (DMSO) were suspended in Mueller–Hinton broth for bacteria or Mueller–Hinton broth with 2% glucose for fungi. Then, the series of two-fold dilutions were carried out in the sterile Nunc™ MicroWell™ 96-Well Microplates (ThermoFisher Scientific Inc.), obtaining concentrations from 1000 to 7.8 mg/L in the appropriate medium. Simultaneously, the inocula of 24 h cultures of microorganisms in sterile physiological saline (0.5 McFarland standard density) were prepared and added to each well, obtaining final density of 5 × 10^5 CFU/mL for bacteria and 5 × 10^4 CFU/mL for yeasts. Proper positive (inoculum without tested compound) and negative (compound without inoculum) controls were added in each microplate. After incubation (35 °C, 24 h), the growth of microorganisms was measured spectrophotometrically at 600 nm (BioTEK ELx808, Bio-Tek Instruments, Inc., Winooski, VT, USA). MICs were marked at the lowest concentration of the compound without the growth of bacteria or fungi.

[5] = test system: Candida parapsilosis ATCC 22019; experiment: Two-fold microdilution broth method, MIC; type: cell-based; details: Lodderomyces parapsilosis, ATCC22019; 35 °C, 24 h
Description: as §2

[6] = test system: Candida glabrata ATCC 90030; experiment: Two-fold microdilution broth method, MIC; type: cell-based; details: Nakaseomyces glabratus, ATCC90030; 35 °C, 24 h
Description: as §2

Candida = experiment: Two-fold microdilution broth method, MIC, yeasts (summary); type: cell-based; details: range over the three yeast strains; read-out: MIC, anti-Candida activity
Description: Antibacterial and antifungal activities of the free ligands L2, L3 and L4 and the corresponding copper(II) complexes C2, C3 and C4 were screened using the two-fold microdilution broth method. Minimal inhibitory concentrations (MICs) of tested compounds for the panel of reference Gram-positive bacteria, including Staphylococcus aureus ATCC 25923, Staphylococcus aureus ATCC BAA-1707, Staphylococcus epidermidis ATCC 12228, Micrococcus luteus ATCC 10240 and Bacillus cereus ATCC 10876; Gram-negative bacteria, including Salmonella Typhimurium ATCC 14028, Escherichia coli ATCC 25922, Proteus mirabilis ATCC 12453, Klebsiella pneumoniae ATCC 13883 and Pseudomonas aeruginosa ATCC 9027; and yeasts, including Candida albicans ATCC 102231, Candida parapsilosis ATCC 22019 and Candida glabrata ATCC 90030 were determined. The procedure has been described in detail before. Briefly, the solutions of tested compounds dissolved in dimethylosulfoxide (DMSO) were suspended in Mueller–Hinton broth for bacteria or Mueller–Hinton broth with 2% glucose for fungi. […] After incubation (35 °C, 24 h), the growth of microorganisms was measured spectrophotometrically at 600 nm (BioTEK ELx808, Bio-Tek Instruments, Inc., Winooski, VT, USA). […]

| IC50 ABTS [3] | melting point [°C] | MIC [4] [µg/mL] | MIC [5] [µg/mL] | MIC [6] [µg/mL] | MIC (Candida) [µg/mL] | Compound | IC50 (HepG2 (hepatoma)) [µg/mL] | IC50 (T98G (glioblastoma)) [µg/mL] | IC50 (LS-180 (colon cancer)) [µg/mL] | IC50 [1] [µg/mL] | IC50 (A375 (melanoma)) [µg/mL] | IC50 [2] [µg/mL] |
| --- | --- | --- | --- | --- | --- | --- | --- | --- | --- | --- | --- | --- |
|  |  |  |  |  |  | COc1cc([C@@H]2c3cc4c(cc3[C@@H](O[C@@H]3O[C@@H]5CO[C@@H](C)O[C@H]5[C@H](O)[C@H]3O)[C@H]3COC(=O)[C@H]23)OCO4)cc(OC)c1O [Etoposide, etoposide, reference compound] | 43.2 ± 2.75 (≈ 73.4 µM) | > 100 | > 100 | 83.5 ± 3.19 (≈ 142 µM) | 10.2 ± 0.83 (≈ 17.3 µM) |  |
| 183.21 ± 2.45 µg/mL (≈ 924 µM) |  |  |  |  |  | O=C1CCN1c1cc2ccccc2cn1 [L1, 1-(isoquinolin-3-yl)azetidin-2-one] | > 200 | > 200 | > 200 | > 200 | > 200 | > 200 |
| 108.59 ± 1.51 µg/mL (≈ 450 µM) | 151 to 153 | 1000 (≈ 4140 µM) | > 1000 | 1000 (≈ 4140 µM) |  | CCN1CCN(c2cc3ccccc3cn2)C1=O [L4, 1-ethyl-3-(isoquinolin-3-yl)imidazolidin-2-one] | > 200 | > 200 | > 200 | > 200 | > 200 | > 200 |
| 96.76 µg/mL and 96.67 ± 2.84 µg/mL |  | 250 (≈ 1100 µM) | 125 (≈ 550 µM) | 250 (≈ 1100 µM) | 125 to 250 (≈ 550 to 1100 µM) | CN1CCN(c2cc3ccccc3cn2)C1=O [L3, 1-(isoquinolin-3-yl)-3-methylimidazolidin-2-one] | > 200 | > 200 | > 200 | > 200 | > 200 | > 200 |
